Test system: 422866-222-R5-J1-PDC complex spheroids viability
Assay: Anticancer human tumor 422866-222-R5-J1-PDC patient-derived pancreatic adenocarcinoma cell line growth inhibition [RAS]
Conditions: for IC50: curve of first compound; for viability, T/C: stronger effect = lower value; active = viability on the fitted dose curve at most 10% of control; inactive = the rest
Method in brief: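 Tumour cells grown as complex spheroids with HUVEC endothelial cells and mesenchymal stem cells, treated with RAS pathway inhibitor combinations. Each agent spans half-log steps from near clinical Cmax, or 10 microM where Cmax is unknown.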

[1] = second compound 0.000949 µM, first compound 0.0316 µM
[2] = second compound 0.000949 µM, first compound 0.1 µM
[3] = second compound 0.000949 µM, first compound 0.316 µM
[4] = second compound 0.000949 µM, first compound 1 µM
[5] = second compound 0.000949 µM, first compound 3.16 µM
[6] = second compound 0.000949 µM, first compound 10 µM
[7] = second compound 0.003 µM, first compound 0.0316 µM
[8] = second compound 0.003 µM, first compound 0.1 µM
[9] = second compound 0.003 µM, first compound 0.316 µM
[10] = second compound 0.003 µM, first compound 1 µM
[11] = second compound 0.003 µM, first compound 3.16 µM
[12] = second compound 0.003 µM, first compound 10 µM
[13] = second compound 0.00949 µM, first compound 0.0316 µM
[14] = second compound 0.00949 µM, first compound 0.1 µM
[15] = second compound 0.00949 µM, first compound 0.316 µM
[16] = second compound 0.00949 µM, first compound 1 µM
[17] = second compound 0.00949 µM, first compound 3.16 µM
[18] = second compound 0.00949 µM, first compound 10 µM
[19] = second compound 0.03 µM, first compound 0.0316 µM
[20] = second compound 0.03 µM, first compound 0.1 µM
[21] = second compound 0.03 µM, first compound 0.316 µM
[22] = second compound 0.03 µM, first compound 1 µM
[23] = second compound 0.03 µM, first compound 3.16 µM
[24] = second compound 0.03 µM, first compound 10 µM
[25] = second compound 0.0949 µM, first compound 0.0316 µM
[26] = second compound 0.0949 µM, first compound 0.1 µM
[27] = second compound 0.0949 µM, first compound 0.316 µM
[28] = second compound 0.0949 µM, first compound 1 µM
[29] = second compound 0.0949 µM, first compound 3.16 µM
[30] = second compound 0.0949 µM, first compound 10 µM
[31] = second compound 0.3 µM, first compound 0.0316 µM
[32] = second compound 0.3 µM, first compound 0.1 µM
[33] = second compound 0.3 µM, first compound 0.316 µM
[34] = second compound 0.3 µM, first compound 1 µM
[35] = second compound 0.3 µM, first compound 3.16 µM
[36] = second compound 0.3 µM, first compound 10 µM
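Note: spheroids exposed to compounds for 7 days.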
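Throughout, for viability, T/C: 100% = DMSO vehicle control viability.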

CC(=O)OC12COC1CC(O)C1(C)C(=O)C(O)C3=C(C)C(OC(=O)C(O)C(NC(=O)OC(C)(C)C)c4ccccc4)CC(O)(C(OC(=O)c4ccccc4)C21)C3(C)C (stereo unspecified) + CCn1c(-c2cccnc2C(C)OC)c2c3cc(ccc31)N1CCOC(CC(NC(=O)C(C(C)C)N(C)C(=O)C3(F)CCN(C(=O)C#CC(C)(C)N(C)C)CC3)C(=O)N3CCCC(N3)C(=O)OCC(C)(C)C2)C1
< 31.6 nM: IC50 (second compound 0.000949 µM) | IC50 (second compound 0.003 µM) | IC50 (second compound 0.00949 µM) | IC50 (second compound 0.03 µM) | IC50 (second compound 0.0949 µM) | IC50 (second compound 0.3 µM)
inactive: viability, T/C [1] 23.9% | viability, T/C [2] 23.8% | viability, T/C [3] 25.8% | viability, T/C [4] 27.3% | viability, T/C [5] 26.3% | viability, T/C [6] 25.9% | viability, T/C [7] 19.9% | viability, T/C [8] 19.6% | viability, T/C [9] 19% | viability, T/C [10] 21.1% | viability, T/C [11] 19.8% | viability, T/C [12] 21.1% | viability, T/C [13] 19.9% | viability, T/C [14] 19% | viability, T/C [15] 20.1% | viability, T/C [16] 21.5% | viability, T/C [17] 22.5% | viability, T/C [18] 19.6% | viability, T/C [19] 15.4% | viability, T/C [20] 19.2% | viability, T/C [21] 21.6% | viability, T/C [22] 19% | viability, T/C [23] 21.3% | viability, T/C [24] 23.9% | viability, T/C [25] 14.5% | viability, T/C [26] 16.5% | viability, T/C [27] 15.3% | viability, T/C [28] 16.4% | viability, T/C [29] 21.6% | viability, T/C [30] 20.9% | viability, T/C [31] 16.2% | viability, T/C [32] 17.9% | viability, T/C [33] 17.6% | viability, T/C [34] 16.8% | viability, T/C [35] 18.4% | viability, T/C [36] 19.9%

NC1c2ccccc2OC12CCN(c1cnc3c(N4CCCc5ncccc54)n[nH]c3n1)CC2 (stereo unspecified) + CCn1c(-c2cccnc2C(C)OC)c2c3cc(ccc31)N1CCOC(CC(NC(=O)C(C(C)C)N(C)C(=O)C3(F)CCN(C(=O)C#CC(C)(C)N(C)C)CC3)C(=O)N3CCCC(N3)C(=O)OCC(C)(C)C2)C1
< 31.6 nM: IC50 (second compound 0.000949 µM) | IC50 (second compound 0.003 µM) | IC50 (second compound 0.00949 µM) | IC50 (second compound 0.03 µM) | IC50 (second compound 0.0949 µM) | IC50 (second compound 0.3 µM)
inactive: viability, T/C [1] 20.1% | viability, T/C [2] 18.2% | viability, T/C [3] 14.9% | viability, T/C [4] 16.1% | viability, T/C [5] 18.1% | viability, T/C [6] 15.7% | viability, T/C [7] 16% | viability, T/C [8] 12.6% | viability, T/C [9] 14.4% | viability, T/C [10] 14.4% | viability, T/C [11] 13.5% | viability, T/C [12] 15.1% | viability, T/C [13] 17.7% | viability, T/C [14] 14.1% | viability, T/C [15] 13.7% | viability, T/C [16] 14.3% | viability, T/C [17] 13.8% | viability, T/C [18] 15.8% | viability, T/C [19] 15.8% | viability, T/C [20] 12.8% | viability, T/C [21] 14.3% | viability, T/C [22] 12.9% | viability, T/C [23] 12.9% | viability, T/C [24] 13.6% | viability, T/C [25] 12.8% | viability, T/C [26] 13.3% | viability, T/C [27] 13.6% | viability, T/C [28] 13% | viability, T/C [29] 12.6% | viability, T/C [30] 13.4% | viability, T/C [31] 11.3% | viability, T/C [32] 13.4% | viability, T/C [33] 13.9% | viability, T/C [34] 11.3% | viability, T/C [35] 14.2% | viability, T/C [36] 17.4%

Nc1ccn(C2OC(CO)C(O)C2(F)F)c(=O)n1 (stereo unspecified) + CCn1c(-c2cccnc2C(C)OC)c2c3cc(ccc31)N1CCOC(CC(NC(=O)C(C(C)C)N(C)C(=O)C3(F)CCN(C(=O)C#CC(C)(C)N(C)C)CC3)C(=O)N3CCCC(N3)C(=O)OCC(C)(C)C2)C1
< 3.16 nM: IC50 (second compound 0.000949 µM) | IC50 (second compound 0.003 µM) | IC50 (second compound 0.00949 µM) | IC50 (second compound 0.03 µM) | IC50 (second compound 0.0949 µM) | IC50 (second compound 0.3 µM)
inactive: viability, T/C (second compound 0.000949 µM, first compound 0.00316 µM) 25.9% | viability, T/C (second compound 0.000949 µM, first compound 0.01 µM) 23.6% | viability, T/C [1] 25.8% | viability, T/C [2] 23.4% | viability, T/C [3] 23.1% | viability, T/C [4] 18.5% | viability, T/C (second compound 0.003 µM, first compound 0.00316 µM) 22.8% | viability, T/C (second compound 0.003 µM, first compound 0.01 µM) 20.6% | viability, T/C [7] 20.3% | viability, T/C [8] 17.5% | viability, T/C [9] 16.3% | viability, T/C [10] 13.8% | viability, T/C (second compound 0.00949 µM, first compound 0.00316 µM) 22.7% | viability, T/C (second compound 0.00949 µM, first compound 0.01 µM) 20.1% | viability, T/C [13] 17.9% | viability, T/C [14] 15.7% | viability, T/C [15] 15.6% | viability, T/C [16] 15.2% | viability, T/C (second compound 0.03 µM, first compound 0.00316 µM) 18.8% | viability, T/C (second compound 0.03 µM, first compound 0.01 µM) 22.6% | viability, T/C [19] 17.1% | viability, T/C [20] 13.3% | viability, T/C [21] 14.6% | viability, T/C [22] 16.9% | viability, T/C (second compound 0.0949 µM, first compound 0.00316 µM) 17.2% | viability, T/C (second compound 0.0949 µM, first compound 0.01 µM) 17.9% | viability, T/C [25] 15.9% | viability, T/C [26] 13.1% | viability, T/C [27] 13.3% | viability, T/C [28] 12.9% | viability, T/C (second compound 0.3 µM, first compound 0.00316 µM) 14.2% | viability, T/C (second compound 0.3 µM, first compound 0.01 µM) 17.2% | viability, T/C [31] 14.3% | viability, T/C [32] 12.4% | viability, T/C [33] 12.5% | viability, T/C [34] 11.4%

Reference: PubChem BioAssay AID2060901 (Molecular Pharmacology Branch, DTP, NCI, 2025)
